Experiments:
rats [1] = experiment: Open field / motor activity; format: in vivo, rat; conditions: rolipram 0.1 and TPAU 10 mg/kg
mouse sEH = target: T1, mouse sEH (Mus musculus, UniProt P34914); experiment: biochemical
T1 sequence (P34914 1-554): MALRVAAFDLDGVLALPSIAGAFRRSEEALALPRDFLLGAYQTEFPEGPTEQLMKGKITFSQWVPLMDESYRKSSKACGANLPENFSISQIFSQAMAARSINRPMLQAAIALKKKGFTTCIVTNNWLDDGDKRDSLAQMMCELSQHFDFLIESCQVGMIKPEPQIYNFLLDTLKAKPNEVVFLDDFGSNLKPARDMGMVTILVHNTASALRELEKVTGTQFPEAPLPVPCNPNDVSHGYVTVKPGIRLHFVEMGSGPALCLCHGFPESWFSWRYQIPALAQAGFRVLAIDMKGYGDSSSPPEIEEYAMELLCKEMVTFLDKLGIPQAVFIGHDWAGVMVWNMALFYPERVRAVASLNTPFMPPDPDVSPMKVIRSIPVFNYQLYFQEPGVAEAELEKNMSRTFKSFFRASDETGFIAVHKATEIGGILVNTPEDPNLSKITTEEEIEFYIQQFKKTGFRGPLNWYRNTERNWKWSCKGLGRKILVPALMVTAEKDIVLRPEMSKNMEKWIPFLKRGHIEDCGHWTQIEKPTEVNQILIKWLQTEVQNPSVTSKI

[2] = Metabolic stability and pharmacokinetics of sEH inhibitors (statements)
StARD1 mRNA [3] = experiment: StARD1 expression after rolipram and TPAU, qRT-PCR; format: in vivo, rat; conditions: rats
Excerpt: Briefly, RNA from whole spinal cord, brain and adrenal gland samples were extracted using a purelink Micro to Midi total RNA purification kit (Invitrogen, CA). The RNA samples were quantified by spectrophotometry and converted to cDNA using a high capacity cDNA reverse transcription kit from Applied Biosystems (CA, USA). Taq-man probe for StARD1 (Rn00580695_ml) was used according to manufacturer's instructions to quantify relative gene expression (Applied Biosystems CA, USA). Experiments were performed in triplicate with glyceraldehyde 3-phosphate dehydrogenase gene serving as the endogenous control. Mean fold expression values from corresponding vehicle treated animal tissues were used as calibrators.
These findings encouraged us to investigate the expression of StARD1 message as a marker of steroidogenic activity. […] Adrenal StARD1 from the same animals was also monitored as a marker of peripheral steroidogenesis.

[4] = Brain, blood and plasma inhibitor levels, LC-ESI-MS/MS; conditions: AEPU dermal, TPAU systemic administration
rats [5] = experiment: Thermal withdrawal latency, intraplantar LPS inflammatory pain model and non-inflamed controls; format: in vivo, rat; conditions: for thermal withdrawal latency in the absence of inflammation: control rats, i.pl. saline
[6] = target: peripheral benzodiazepine receptor (PBR, TSPO) (Rattus norvegicus, UniProt P16257); experiment: Displacement of [3H] PK11195 from TSPO (rat heart mitochondria, CEREP); conditions: methyl ester forms
sEH = target: T2, sEH (Homo sapiens, UniProt P34913); experiment: Testing as sEH inhibitors (assay not specified); format: biochemical
T2 sequence (P34913 1-555): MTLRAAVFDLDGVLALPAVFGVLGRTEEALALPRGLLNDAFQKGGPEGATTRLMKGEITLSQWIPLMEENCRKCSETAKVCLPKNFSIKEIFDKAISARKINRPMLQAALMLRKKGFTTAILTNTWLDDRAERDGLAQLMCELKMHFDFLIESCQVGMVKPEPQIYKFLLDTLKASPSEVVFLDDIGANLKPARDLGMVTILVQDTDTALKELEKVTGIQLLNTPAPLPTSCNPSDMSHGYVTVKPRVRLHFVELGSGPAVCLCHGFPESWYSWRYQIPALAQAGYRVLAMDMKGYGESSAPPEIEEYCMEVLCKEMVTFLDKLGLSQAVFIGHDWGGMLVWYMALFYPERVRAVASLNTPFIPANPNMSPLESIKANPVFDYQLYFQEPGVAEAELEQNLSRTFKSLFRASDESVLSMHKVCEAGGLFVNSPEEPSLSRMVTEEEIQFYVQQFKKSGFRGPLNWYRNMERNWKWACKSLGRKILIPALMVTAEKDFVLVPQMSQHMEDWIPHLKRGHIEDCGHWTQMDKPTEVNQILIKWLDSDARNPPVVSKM
Excerpt: Any of a number of standard assays for determining epoxide hydrolase activity can be used to determine inhibition of sEH. For example, suitable assays are described in Gill, et al., Anal Biochem 131:273-282 (1983); and Borhan, et al., Analytical Biochemistry 231:188-200 (1995)). Suitable in vitro assays are described in Zeldin et al., J. Biol. Chem. 268:6402-6407 (1993). Suitable in vivo assays are described in Zeldin et al., Arch Biochem Biophys 330:87-96 (1996). Assays for epoxide hydrolase using both putative natural substrates and surrogate substrates have been reviewed (see, Hammock, et al. In: Methods in Enzymology, Volume III, Steroids and Isoprenoids, Part B, (Law, J. H. and H. C. Rilling, eds. 1985), Academic Press, Orlando, Fla., pp. 303-311 and Wixtrom et al., In: Biochemical Pharmacology and Toxicology, Vol. 1: Methodological Aspects of Drug Metabolizing Enzymes, (Zakim, D. and D. A. Vessey, eds. 1985), John Wiley & Sons, Inc., New York, pp. 1-93. Several spectral based assays exist based on the reactivity or tendency of the resulting diol product to hydrogen bond (see, e.g., Wixtrom, supra, and Hammock. Anal. Biochem. 174:291-299 (1985) and Dietze, et al. Anal. Biochem. 216:176-187 (1994)).

StARD1 mRNA [7] = experiment: StARD1 mRNA 30 min after intraspinal 8-Br cAMP, EETs, AEPU in non-inflamed rats; format: in vivo, rat; conditions: 8-Br cAMP 100 μg, EETs 5 μg, AEPU 1 μg
Procedure: To investigate the cooperation between cAMP and EETs in the spinal cord, a membrane permeable cAMP analogue, 8-Br cAMP (100 μg), was administered into the spinal cord by lumbar puncture (between L4-L5) and rapid (30 min.) expression of StARD1 mRNA in the spinal cord and the brain was quantified by qRT-PCR. In these experiments animals were maintained under deep anesthesia.

[8] = system: circulating testosterone and progesterone; experiment: Circulating steroid hormone levels by RIA; format: in vivo, rat; conditions: rats
[9] = system: plasma oxylipins (EETs, DHETs, PGE2); experiment: Plasma oxylipin analysis in LPS treated rats; format: in vivo, rat; conditions: LPS treated rats, two hours
Excerpt: Plasma was collected by cardiac puncture under deep anesthesia. Rats were anesthetized by isoflurane overdose and decapitated. Whole brains were immediately excised and flash frozen. […] Dorsal roots were excluded.

StARD1 mRNA [10] = experiment: StARD1 mRNA in LPS inflamed rats, qRT-PCR; format: in vivo, rat
Excerpt: (§1) A purelink Micro to Midi total RNA purification kit (Invitrogen, CA) was used to extract RNA from whole spinal cord, adrenal gland and testis. For brain, the remaining caudal two thirds were sliced into two hemispheres from the midline and a coronal slice of 2 mm in thickness was taken for analysis. The RNA samples were quantified by spectrophotometry and converted to cDNA using a high capacity cDNA reverse transcription kit from Applied Biosystems (CA, USA). Taq-man probes for COX2 (Rn00568225_ml) StARD1 (Rn00580695_ml), ICER(Rn00569145_ml), Sst (Rn00561967_ml), sEH(Rn00576023_ml) genes were used according to manufacturer's instructions to quantify relative gene expression (Applied Biosystems). Experiments were performed in triplicate with GAPDH (glyceraldehyde 3-phosphate dehydrogenase message) serving as the endogenous control. Mean fold expression values from corresponding untreated animal tissues were used as calibrators.

rats [11] = experiment: Intraplantar carrageenan inflammatory pain model, intrathecal sEHI; format: in vivo, rat; conditions: intrathecal 0.1-3 μg
Procedure: The study was approved by UC Davis Animal Care and Use Committee. Male Sprague-Dawley rats weighing 250-350 g were obtained from Charles River Inc. Two models of inflammatory pain and one model of diabetic neuropathic pain were used to test the effects of sEHI. The main inflammatory pain model used involved intraplantar LPS (10 μg/animal) administration as described previously (Inceoglu B et al., Life Sci 79:2311-2319 (2006)). Briefly, following baseline thermal withdrawal latency and mechanical withdrawal threshold determination LPS (in saline) was administered into one hind paw and nociceptive thresholds were monitored over time. The other inflammatory pain model involved intraplantar carrageenan (1% in saline, 50 μl) administration and was only used when sEHI was administered into the spinal cord. Intrathecal catheters were implanted according to Yaksh and Rudy (Yaksh T L and Rudy T A, Physiol Behav 17(6):1031-1036 (1976)). Following baseline nociceptive response measurements carrageenan was administered into one hind paw and responses were monitored over time and after intraspinal sEHI administration. […] In experiments in which EETs, sEHI and cAMP analogue was administered intraspinally animals were maintained under deep anesthesia and therefore nociceptive thresholds were not determined.

COX2 mRNA = experiment: Spinal COX2 mRNA after intraplantar LPS, qRT-PCR; format: in vivo, rat; conditions: rats
Excerpt: as §1

Compound: CC(=O)N1CCC(NC(=O)Nc2ccc(OC(F)(F)F)cc2)CC1 [TPAU]
- open field activity / motor function (rats [1]): did not affect motor function
- IC50 (mouse sEH): 97 nM
- metabolic stability [2]: metabolically stable
- oral availability and pharmacokinetics [2]: excellent oral availability and pharmacokinetics
- decrease in adrenal gland StARD1 expression (StARD1 mRNA [3]): 30%
- penetration into the brain [4]: efficiently penetrated into the brain
- thermal withdrawal latency in the absence of inflammation (rats [5]): no effect
- loss of motor activity (rats [5]; rats): No loss of motor activity

Compound: CCCCC/C=C\C/C=C\CC1OC1C/C=C\CCCC(=O)O (stereo not drawn) [8,9-EET]
- competition with radioligand [3H] PK11195 at TSPO [6]: did not compete

Compound: CCCCCCCCCCCCNC(=O)NC12CC3CC(CC(C3)C1)C2 [ADU, N-Adamantyl-N′-dodecyl urea]
- metabolic stability [2]: metabolically stable
- activity as inhibitor of sEH (sEH): particularly high activity

Compound: CCOCCOCCOCCCCCNC(=O)NC12CC3CC(CC(C3)C1)C2 [AEPU, Adamantan-1-yl-3-{5-[2-(2-ethoxyethoxy)ethoxy]pentyl}urea]
- spinal StARD1 expression (StARD1 mRNA [7]): without effect
- metabolism [2]: metabolized rapidly
- circulating / plasma progesterone level [8]: decreased
- plasma testosterone level ([8]; with or without LPS): did not alter
- plasma DHET level [9]: decreased
- plasma PGE2 level [9]: decreased
- adrenal gland StARD1 mRNA induced by LPS (StARD1 mRNA [10]): reduced
- brain StARD1 mRNA expression (StARD1 mRNA [10]): two-fold increase
- spinal StARD1 mRNA expression (StARD1 mRNA [10]): sustained
- testis StARD1 mRNA induced by LPS (StARD1 mRNA [10]): not in testis
- carrageenan induced mechanical allodynia (rats [11]): dose dependent decrease
- carrageenan induced thermal hyperalgesia (rats [11]): dose dependent decrease
- penetration into the brain [4]: efficiently penetrated into the brain
- thermal withdrawal latency in the absence of inflammation (rats [5]): no effect
- LPS elicited thermal hyperalgesia (thermal withdrawal latency) (rats [5]; rats, i.pl. LPS 10 μg): briefly increased
- spinal COX2 message after LPS (COX2 mRNA): significantly suppressed
